Experimental data published in the supplement of paper PMC10307832.

Legend:
Test in all cases: relative viability (nuclei count vs DMSO), 5 days (fraction); higher = more cells survive
[1] = compound: Cc1ccc(NC(=O)c2ccc(CN3CCN(C)CC3)cc2)cc1Nc1nccc(-c2cccnc2)n1 [Imatinib] + O=C(CCCCCCC(=O)Nc1ccccc1)NO [Vorinostat] (partner 1 µM)
In short: (§1)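 Each reported value is a median over duplicate plates. It expresses relative viability: treated-well nuclei count divided by vehicle-well nuclei count. Lung cancer cell lines in 1536-well plates were dosed by pin tool a day after seeding, alone with one drug or with a fixed anchor-drug dose plus five library-drug doses (not always all listed) in √10 steps, and nuclei were counted after 5 days.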

[2] = compound: Cc1ccc(NC(=O)c2ccc(CN3CCN(C)CC3)cc2)cc1Nc1nccc(-c2cccnc2)n1 [Imatinib] + CC(=O)Nc1cccc(-n2c(=O)n(C3CC3)c(=O)c3c(Nc4ccc(I)cc4F)n(C)c(=O)c(C)c32)c1 [Trametinib] (partner 0.02 µM)
In short: as §1

[3] = compound: Cc1ccc(NC(=O)c2ccc(CN3CCN(C)CC3)cc2)cc1Nc1nccc(-c2cccnc2)n1 [Imatinib] + N=C(N)NC(=N)NCCc1ccccc1 [Phenformin] (partner 250 µM)
In short: as §1

[4] = compound: Cc1ccc(NC(=O)c2ccc(CN3CCN(C)CC3)cc2)cc1Nc1nccc(-c2cccnc2)n1 [Imatinib] + COc1cc2c(Oc3ccc(NC(=O)C4(C(=O)Nc5ccc(F)cc5)CC4)cc3F)ccnc2cc1OCCCN1CCOCC1 [Foretinib] (partner 0.25 µM)
In short: as §1

Row | Cell Line | relative viability ([1]; first compound 0.02 µM) | relative viability ([1]; first compound 0.06325 µM) | relative viability ([1]; first compound 0.2 µM) | relative viability ([1]; first compound 0.6325 µM) | relative viability ([1]; first compound 2 µM) | relative viability ([2]; first compound 0.02 µM) | relative viability ([2]; first compound 0.06325 µM) | relative viability ([2]; first compound 0.2 µM) | relative viability ([2]; first compound 0.6325 µM) | relative viability ([2]; first compound 2 µM) | relative viability ([3]; first compound 0.02 µM) | relative viability ([3]; first compound 0.06325 µM) | relative viability ([3]; first compound 0.2 µM) | relative viability ([3]; first compound 0.6325 µM) | relative viability ([3]; first compound 2 µM) | relative viability ([4]; first compound 0.02 µM) | relative viability ([4]; first compound 0.06325 µM) | relative viability ([4]; first compound 0.2 µM) | relative viability ([4]; first compound 0.6325 µM) | relative viability ([4]; first compound 2 µM)
1 | NCI-H322M | 0.889 | 0.873 | 0.928 | 0.775 | 0.876 | 0.45 | 0.48 | 0.546 | 0.535 | 0.507 | 0.909 | 0.839 | 0.819 | 0.679 | 0.795 | 1.09 | 1.03 | 1.01 | 0.883 | 0.935
2 | NCI-H358 | 0.863 | 0.83 | 0.642 | 0.692 | 0.729 | 0.14 | 0.143 | 0.129 | 0.139 | 0.121 | 0.317 | 0.349 | 0.418 | 0.292 | 0.335 | 0.685 | 0.519 | 0.726 | 0.619 | 0.648
3 | NCI-H441 | 0.96 | 1.07 | 0.893 | 0.858 | 0.737 | 0.537 | 0.459 | 0.572 | 0.517 | 0.37 | 0.755 | 0.747 | 1.02 | 0.958 | 0.879 | 0.72 | 1.1 | 1.11 | 1.16 | 0.916
4 | NCI-H460 | 1.4 | 0.636 | 1.09 | 0.705 | 0.735 | 0.142 | 0.102 | 0.199 | 0.125 | 0.21 | 0.621 | 0.555 | 0.557 | 0.443 | 0.478 | 1.12 | 0.918 | 1.15 | 0.909 | 1.07
5 | NCI-H520 | 0.7 | – | 0.662 | 0.922 | 0.729 | 0.775 | 0.531 | 0.669 | 0.674 | 0.8 | 0.695 | 0.823 | 0.545 | 0.568 | 0.497 | 0.616 | 1.2 | 0.64 | 0.757 | 0.903
6 | NCI-H596 | 0.648 | 0.481 | 0.59 | 0.586 | 0.623 | 0.721 | 1.06 | 0.876 | 0.693 | – | 0.73 | 0.663 | 0.816 | 0.693 | 0.834 | 0.948 | – | 0.931 | 0.855 | 0.832
7 | NCI-H647 | 0.459 | 0.888 | 0.593 | 0.549 | 0.619 | 0.512 | 0.414 | 0.563 | 0.365 | 0.458 | 0.518 | 0.696 | 0.611 | 0.513 | 0.461 | 1.51 | 1.27 | 1.57 | 1.25 | 1.06
8 | NCI-H650 | 0.388 | 0.597 | 0.448 | 0.466 | 0.466 | 0.969 | 0.833 | 0.937 | 1.04 | 0.843 | 0.505 | 0.435 | 0.516 | 0.494 | 0.425 | 1.07 | 0.78 | 1.03 | 1.17 | 0.977
9 | NCI-H661 | 0.823 | 0.87 | 0.845 | 0.778 | 0.74 | 0.62 | 0.419 | 0.649 | 0.586 | 0.593 | 0.245 | 0.255 | 0.259 | 0.263 | 0.258 | 1 | 1.04 | 1.1 | 0.94 | 1.02
10 | NCI-H727 | 1.28 | – | – | 1.14 | 1.34 | 0.334 | – | 0.411 | 0.392 | 0.411 | 0.653 | – | 0.876 | 0.522 | 0.522 | 0.969 | 0.898 | 0.891 | 0.712 | 0.834
11 | NCI-H838 | 0.77 | 0.786 | 0.74 | 0.708 | 0.76 | 0.504 | 0.549 | 0.608 | 0.569 | 0.486 | 0.555 | 0.668 | 0.64 | 0.619 | 0.596 | 1.15 | 1.17 | 1.07 | 1.02 | 1.02
12 | NCI-H1355 | 0.733 | – | 0.688 | 0.579 | 0.609 | 0.494 | – | 0.436 | – | 0.411 | 0.493 | – | 0.461 | 0.409 | 0.391 | 1.05 | – | 1.07 | 0.964 | 0.983
13 | NCI-H1395 | 0.687 | – | 0.67 | 0.698 | 0.594 | 1.07 | – | 1.13 | 0.999 | 0.997 | 0.472 | 0.4 | 0.438 | 0.471 | 0.447 | 0.952 | 1.15 | 1 | – | 1.02
14 | NCI-H1437 | 0.934 | 0.81 | 0.883 | 0.998 | 0.786 | 0.569 | 0.345 | 0.607 | 0.544 | 0.494 | 0.267 | 0.326 | 0.361 | 0.308 | 0.283 | 1.37 | 1.26 | 1.33 | 1.22 | 1.24
15 | NCI-H1650 | 0.605 | 0.527 | 0.477 | 0.441 | 0.452 | 0.579 | 0.471 | 0.404 | 0.635 | 0.559 | 0.499 | 0.473 | 0.329 | 0.388 | 0.385 | 0.962 | – | 1.01 | 1.2 | 1.06
16 | NCI-H1651 | 0.603 | 0.49 | 0.631 | 0.547 | 0.548 | 0.876 | 0.795 | 0.859 | 0.84 | 0.82 | 0.338 | 0.35 | 0.329 | 0.339 | 0.374 | 0.902 | 0.619 | 0.87 | 0.79 | 0.77
17 | NCI-H1666 | 1.04 | 0.986 | 1.06 | 1.27 | 0.946 | 0.82 | 0.855 | 0.823 | 1.09 | 0.924 | 0.534 | 0.613 | 0.592 | 0.663 | 0.551 | 0.926 | 0.911 | 0.943 | 1.15 | 0.966
